Read-outs that look alike come from different tables or passages of the source.
Tests used:
NaV1.3 [1] = target: T1, NaV1.3 (Homo sapiens, UniProt Q9NY46); assay: Activity against NaV 1.3 channel (optical membrane potential assay); type: cell-based; set-up: expressed in transfected cells; host or cells: HEK293
Procedure: (§1) Compounds of the invention are useful as antagonists of voltage-gated sodium ion channels. Antagonist properties of test compounds were assessed as follows. Cells expressing the NaV of interest were placed into microtiter plates. After an incubation period, the cells were stained with fluorescent dyes sensitive to the transmembrane potential. The test compounds were added to the microtiter plate. The cells were stimulated with either a chemical or electrical means to evoke a NaV dependent membrane potential change from unblocked channels, which was detected and measured with trans-membrane potential-sensitive dyes. Antagonists were detected as a decreased membrane potential response to the stimulus. The optical membrane potential assay utilized voltage-sensitive FRET sensors described by Gonzalez and Tsien (See, Gonzalez, J. E. and R. Y. Tsien (1995) “Voltage sensing by fluorescence resonance energy transfer in single cells” Biophys J 69(4): 1272-80, and Gonzalez, J. E. and R. Y. Tsien (1997) “Improved indicators of cell membrane potential that use fluorescence resonance energy transfer” Chem Biol 4(4): 269-77) in combination with instrumentation for measuring fluorescence changes such as the Voltage/Ion Probe Reader (VIPR®) (See, Gonzalez, J. E., K. Oades, et al. (1999) “Cell-based assays and instrumentation for screening ion-channel targets” Drug Discov Today 4(9): 431-439).
(§2) C) VIPR® Optical Membrane Potential Assay Method with Electrical Stimulation
(§3) The following is an example of how NaV1.3 inhibition activity is measured using the optical membrane potential method#2. Other subtypes are performed in an analogous mode in a cell line expressing the NaV of interest.
HEK293 cells stably expressing NaV1.3 are plated into 96-well microtiter plates. After an appropriate incubation period, the cells are stained with the voltage sensitive dyes CC2-DMPE/DiSBAC2(3) as follows.
(§4) 10 mM CC2-DMPE is vortexed with an equivalent volume of 10% pluronic, followed by vortexing in required amount of HBSS containing 10 mM HEPES. Each cell plate will require 5 mL of 2×CC2-DMPE. 50 µL of 2×CC2-DMPE is to wells containing washed cells, resulting in a 10 μM final staining concentration. The cells are stained for 30 minutes in the dark at RT.
(§5) The required amount of 10 mM DISBAC2(3) is added to a 50 ml conical tube and mixed with 1 μL 10% pluronic for each mL of solution to be made and vortexed together. Then HBSS/HEPES is added to make up 2× solution. Finally, the ABSC1 is added.
(§6) The 2×DiSBAC2(3) solution can be used to solvate compound plates. Note that compound plates are made at 2× drug concentration. Wash stained plate again, leaving residual volume of 50 μL. Add 50 uL/well of the 2×DiSBAC2(3) w/ABSC1. Stain for 30 minutes in the dark at RT.
(§7) The electrical stimulation instrument and methods of use are described in ION Channel Assay Methods PCT/US01/21652, herein incorporated by reference. The instrument comprises a microtiter plate handler, an optical system for exciting the coumarin dye while simultaneously recording the coumarin and oxonol emissions, a waveform generator, a current- or voltage-controlled amplifier, and a device for inserting electrodes in well. Under integrated computer control, this instrument passes user-programmed electrical stimulus protocols to cells within the wells of the microtiter plate.
(§8) Assay Protocol • 1. Insert or use electrodes into each well to be assayed. • 2. Use the current-controlled amplifier to deliver stimulation wave pulses for 3 s. Two seconds of pre-stimulus recording are performed to obtain the un-stimulated intensities. Five seconds of post-stimulation recording are performed to examine the relaxation to the resting state.
Data are analyzed and reported as normalized ratios of background-subtracted emission intensities measured in the 460 nm and 580 nm channels. Background intensities are then subtracted from each assay channel. […]
Target sequence in this assay (Q9NY46 whole entry): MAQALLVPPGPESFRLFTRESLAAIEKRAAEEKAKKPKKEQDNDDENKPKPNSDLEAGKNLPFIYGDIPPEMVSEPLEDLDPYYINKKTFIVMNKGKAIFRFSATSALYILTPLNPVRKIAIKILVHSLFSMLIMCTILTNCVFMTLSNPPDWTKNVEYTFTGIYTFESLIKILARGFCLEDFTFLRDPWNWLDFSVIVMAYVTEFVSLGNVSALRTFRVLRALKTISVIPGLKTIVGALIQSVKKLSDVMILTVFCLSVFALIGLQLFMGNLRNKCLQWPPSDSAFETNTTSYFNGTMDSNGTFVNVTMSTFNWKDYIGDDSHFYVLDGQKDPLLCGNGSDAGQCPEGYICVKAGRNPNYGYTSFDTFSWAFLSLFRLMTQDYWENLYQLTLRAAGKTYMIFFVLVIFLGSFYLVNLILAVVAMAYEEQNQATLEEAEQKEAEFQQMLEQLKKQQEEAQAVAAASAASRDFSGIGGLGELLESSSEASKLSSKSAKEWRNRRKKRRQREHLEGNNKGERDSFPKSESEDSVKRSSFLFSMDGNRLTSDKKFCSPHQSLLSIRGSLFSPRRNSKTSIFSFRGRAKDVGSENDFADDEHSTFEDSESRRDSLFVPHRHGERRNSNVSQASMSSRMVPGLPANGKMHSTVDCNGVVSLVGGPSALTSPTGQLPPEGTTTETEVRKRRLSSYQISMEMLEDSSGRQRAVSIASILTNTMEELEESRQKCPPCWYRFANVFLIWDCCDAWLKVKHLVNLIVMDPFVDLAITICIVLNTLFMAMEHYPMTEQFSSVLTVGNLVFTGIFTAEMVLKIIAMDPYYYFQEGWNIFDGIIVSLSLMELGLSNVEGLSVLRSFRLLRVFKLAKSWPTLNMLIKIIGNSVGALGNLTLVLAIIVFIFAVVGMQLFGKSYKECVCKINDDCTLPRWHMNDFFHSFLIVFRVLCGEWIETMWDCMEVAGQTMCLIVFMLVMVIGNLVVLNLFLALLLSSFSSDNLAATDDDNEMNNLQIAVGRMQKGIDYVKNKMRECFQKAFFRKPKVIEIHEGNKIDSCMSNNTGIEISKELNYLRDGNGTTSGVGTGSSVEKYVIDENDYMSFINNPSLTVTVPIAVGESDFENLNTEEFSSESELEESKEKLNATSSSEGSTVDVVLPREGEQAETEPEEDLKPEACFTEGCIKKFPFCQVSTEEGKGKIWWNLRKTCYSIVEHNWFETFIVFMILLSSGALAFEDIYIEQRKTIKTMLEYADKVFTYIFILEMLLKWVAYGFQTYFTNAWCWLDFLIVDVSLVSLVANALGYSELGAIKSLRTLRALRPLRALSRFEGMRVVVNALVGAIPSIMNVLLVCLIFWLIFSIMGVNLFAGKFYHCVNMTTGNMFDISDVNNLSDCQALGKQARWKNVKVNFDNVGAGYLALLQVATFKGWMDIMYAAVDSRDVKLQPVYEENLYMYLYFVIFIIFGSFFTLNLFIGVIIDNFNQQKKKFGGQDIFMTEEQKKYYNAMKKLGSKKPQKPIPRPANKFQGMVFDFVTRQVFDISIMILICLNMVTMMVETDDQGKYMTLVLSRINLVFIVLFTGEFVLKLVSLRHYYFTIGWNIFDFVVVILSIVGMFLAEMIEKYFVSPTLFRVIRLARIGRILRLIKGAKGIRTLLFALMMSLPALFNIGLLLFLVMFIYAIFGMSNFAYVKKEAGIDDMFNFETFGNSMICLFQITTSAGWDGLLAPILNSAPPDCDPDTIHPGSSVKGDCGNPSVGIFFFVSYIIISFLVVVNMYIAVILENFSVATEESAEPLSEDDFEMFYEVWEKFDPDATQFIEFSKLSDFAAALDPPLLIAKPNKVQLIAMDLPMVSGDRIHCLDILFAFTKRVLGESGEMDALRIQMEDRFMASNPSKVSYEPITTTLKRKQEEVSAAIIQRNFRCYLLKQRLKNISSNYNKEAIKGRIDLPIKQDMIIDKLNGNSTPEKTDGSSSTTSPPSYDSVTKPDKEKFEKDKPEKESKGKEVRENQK

NaV1.8 = NaV1.8 (Homo sapiens, UniProt Q9Y5Y9); assay: Activity against NaV 1.8 channel (optical membrane potential assay); type: cell-based
Procedure: as §1, §2, §3, §4, §5, §6, §7, §8
(§9) Data are analyzed and reported as normalized ratios of background-subtracted emission intensities measured in the 460 nm and 580 nm channels. Background intensities are then subtracted from each assay channel. Background intensities are obtained by measuring the emission intensities during the same time periods from identically treated assay wells in which there are no cells. The response as a function of time is then reported as the ratios obtained using the following formula: […]

NaV 1.7 channel = NaV 1.7 channel (Homo sapiens, UniProt Q15858); assay: Activity against NaV 1.7 channel (optical membrane potential assay); type: cell-based
Procedure: as §1, §2, §3, §4, §5, §6, §7, §8, §9

NaV1.9 = NaV1.9 (Homo sapiens, UniProt Q9UI33); conditions: read-out: TTX IC50; cited from earlier work
NaV1.3 [2] = target: T1, NaV1.3; conditions: read-out: TTX IC50; cited from earlier work
Target sequence in this assay (Q9NY46 whole entry, looked up): as the sequence (Q9NY46 whole entry) above

NaV1.1 = NaV1.1 (Homo sapiens, UniProt P35498); conditions: read-out: TTX IC50; cited from earlier work
NaV1.2 = NaV1.2 (Homo sapiens, UniProt Q99250); conditions: read-out: TTX IC50; cited from earlier work
NaV1.6 = NaV1.6 (Homo sapiens, UniProt Q9UQD0); conditions: read-out: TTX IC50; cited from earlier work

NaV 1.7 channel, sequence (Q15858 whole entry): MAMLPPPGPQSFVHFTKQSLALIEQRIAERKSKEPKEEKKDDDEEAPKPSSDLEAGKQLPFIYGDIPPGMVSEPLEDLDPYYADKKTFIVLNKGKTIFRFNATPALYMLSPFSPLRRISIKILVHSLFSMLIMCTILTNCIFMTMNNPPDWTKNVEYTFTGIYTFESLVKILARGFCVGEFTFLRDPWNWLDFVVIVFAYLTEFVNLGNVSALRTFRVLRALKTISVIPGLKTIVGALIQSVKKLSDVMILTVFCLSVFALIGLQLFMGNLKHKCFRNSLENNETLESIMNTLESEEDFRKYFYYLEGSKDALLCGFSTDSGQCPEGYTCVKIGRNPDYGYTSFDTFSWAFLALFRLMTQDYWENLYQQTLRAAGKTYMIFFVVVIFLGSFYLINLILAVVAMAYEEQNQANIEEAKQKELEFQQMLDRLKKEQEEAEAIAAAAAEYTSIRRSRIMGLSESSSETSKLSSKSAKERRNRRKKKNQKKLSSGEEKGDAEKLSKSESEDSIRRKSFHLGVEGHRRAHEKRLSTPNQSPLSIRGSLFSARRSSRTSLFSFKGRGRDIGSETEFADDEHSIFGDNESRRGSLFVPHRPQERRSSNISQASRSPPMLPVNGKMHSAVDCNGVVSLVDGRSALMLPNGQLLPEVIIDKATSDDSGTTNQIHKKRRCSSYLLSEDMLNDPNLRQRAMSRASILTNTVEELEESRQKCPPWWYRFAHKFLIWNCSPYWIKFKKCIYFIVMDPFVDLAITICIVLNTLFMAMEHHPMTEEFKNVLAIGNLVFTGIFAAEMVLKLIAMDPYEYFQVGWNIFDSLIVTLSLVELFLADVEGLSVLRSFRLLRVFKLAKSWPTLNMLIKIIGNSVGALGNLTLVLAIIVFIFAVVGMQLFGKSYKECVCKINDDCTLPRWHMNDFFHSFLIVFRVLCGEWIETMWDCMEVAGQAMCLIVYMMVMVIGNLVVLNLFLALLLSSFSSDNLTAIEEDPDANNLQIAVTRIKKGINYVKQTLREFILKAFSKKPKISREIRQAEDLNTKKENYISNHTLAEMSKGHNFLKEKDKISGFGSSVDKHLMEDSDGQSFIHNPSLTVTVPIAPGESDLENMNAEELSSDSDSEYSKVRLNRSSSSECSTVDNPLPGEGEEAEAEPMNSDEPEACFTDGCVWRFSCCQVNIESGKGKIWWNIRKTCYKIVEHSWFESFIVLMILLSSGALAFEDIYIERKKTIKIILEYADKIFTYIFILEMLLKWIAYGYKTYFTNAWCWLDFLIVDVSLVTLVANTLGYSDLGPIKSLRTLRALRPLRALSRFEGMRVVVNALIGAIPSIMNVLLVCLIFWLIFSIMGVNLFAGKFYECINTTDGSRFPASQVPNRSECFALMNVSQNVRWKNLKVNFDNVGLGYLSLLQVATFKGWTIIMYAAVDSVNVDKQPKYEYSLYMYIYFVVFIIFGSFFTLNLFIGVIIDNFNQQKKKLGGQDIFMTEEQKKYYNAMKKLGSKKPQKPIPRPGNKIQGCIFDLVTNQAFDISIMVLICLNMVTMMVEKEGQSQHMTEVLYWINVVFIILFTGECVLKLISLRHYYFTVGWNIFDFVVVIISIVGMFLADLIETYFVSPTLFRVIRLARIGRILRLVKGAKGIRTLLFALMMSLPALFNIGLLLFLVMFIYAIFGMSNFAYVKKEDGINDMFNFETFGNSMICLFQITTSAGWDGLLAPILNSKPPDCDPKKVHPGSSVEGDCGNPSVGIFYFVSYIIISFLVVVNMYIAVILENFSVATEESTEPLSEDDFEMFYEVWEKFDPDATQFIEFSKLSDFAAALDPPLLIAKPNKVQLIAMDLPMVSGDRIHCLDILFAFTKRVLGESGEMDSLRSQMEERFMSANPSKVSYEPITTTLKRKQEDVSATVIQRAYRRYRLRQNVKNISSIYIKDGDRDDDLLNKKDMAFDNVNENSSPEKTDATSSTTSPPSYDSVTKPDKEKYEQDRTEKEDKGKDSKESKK

With NC(=O)c1cccc(NC(=O)c2ccccc2Cc2ccccc2)c1 [Compound 1] as the molecule, how does the IC50 (NaV1.3 [1]) read?
Its IC50 is greater than 20 µM.

With NC(=O)c1cccc(NC(=O)c2ccccc2Nc2cccc(F)c2)c1 [Compound 2] as the molecule, how does the IC50 (NaV1.3 [1]) read?
The IC50 was greater than 20 µM.

With NC(=O)c1cccc(NC(=O)c2ccccc2Oc2ccc(F)cc2)c1 [Compound 3, N-(3-carbamoylphenyl)-2-(4-fluorophenoxy)benzamide] as the molecule, how does the IC50 (NaV1.3 [1]) read?
Its IC50 is 10 to 20 µM.

And the IC50 (NaV1.8)?
The IC50 was less than 2 µM.

For NC(=O)c1cccc(NC(=O)c2ccccc2Oc2ccc(Br)cc2)c1 [Compound 4], which IC50 (NaV1.3 [1]) is on record?
Its IC50 is 2 to 10 µM.

And the IC50 (NaV1.8)?
The IC50 was less than 2 µM.

Which IC50 (NaV1.3 [1]) does the source give for NC(=O)c1cccc(NC(=O)c2ccccc2Oc2ccc(C(F)(F)F)cc2)c1 [Compound 5] here?
The IC50 was 10 to 20 µM.

For Cc1ncccc1Oc1cc(C(C)(C)C)ccc1C(=O)Nc1cccc(C(N)=O)c1 [Compound 6], which IC50 (NaV 1.7 channel) is on record?
The IC50 was greater than 20 µM.

And the IC50 (NaV1.3 [1])?
Its IC50 is greater than 20 µM.

And the IC50 (NaV1.8)?
The IC50 was less than 2 µM.

Which IC50 (NaV 1.7 channel) does the source give for CC(C)(C)c1ccc(C(=O)Nc2cccc(C(N)=O)c2)c(Oc2ccc(C(F)(F)F)nc2)c1 [Compound 7] here?
The IC50 was 2 to 10 µM.

What about the IC50 (NaV1.3 [1]) of the same molecule?
The IC50 was 10 to 20 µM.

What about the IC50 (NaV1.8) of the same molecule?
The IC50 was less than 2 µM.

For CC(C)(C)c1ccc(C(=O)Nc2cccc(C(N)=O)c2)c(Oc2ccc(F)cc2Cl)c1 [Compound 8], which IC50 (NaV 1.7 channel) is on record?
Its IC50 is 2 to 10 µM.

And the IC50 (NaV1.3 [1])?
Its IC50 is 10 to 20 µM.

And the IC50 (NaV1.8)?
Its IC50 is less than 2 µM.

Which IC50 (NaV 1.7 channel) does the source give for CC(C)(C)c1ccc(C(=O)Nc2cccc(S(C)(=O)=O)c2)c(Oc2ccc(F)cc2Cl)c1 [Compound 9] here?
Its IC50 is 2 to 10 µM.

And the IC50 (NaV1.3 [1])?
Its IC50 is 10 to 20 µM.

What about the IC50 (NaV1.8) of the same molecule?
The IC50 was less than 2 µM.

For CC(C)(C)c1ccc(C(=O)Nc2cccc(NS(C)(=O)=O)c2)c(Oc2ccc(F)cc2Cl)c1 [Compound 10], which IC50 (NaV 1.7 channel) is on record?
The IC50 was 2 to 10 µM.

What about the IC50 (NaV1.3 [1]) of the same molecule?
The IC50 was 10 to 20 µM.

What about the IC50 (NaV1.8) of the same molecule?
The IC50 was 2 to 10 µM.

Which IC50 (NaV 1.7 channel) does the source give for CNC(=O)c1cccc(NC(=O)c2ccc(C(C)(C)C)cc2Oc2ccc(F)cc2Cl)c1 [Compound 11] here?
The IC50 was 2 to 10 µM.

And the IC50 (NaV1.3 [1])?
The IC50 was 2 to 10 µM.

And the IC50 (NaV1.8)?
Its IC50 is less than 2 µM.

Which IC50 (NaV 1.7 channel) does the source give for Cc1ncccc1Oc1cc(C(C)(C)C)ccc1C(=O)Nc1cccc(S(C)(=O)=O)c1 [Compound 12] here?
Its IC50 is 2 to 10 µM.

What about the IC50 (NaV1.3 [1]) of the same molecule?
The IC50 was greater than 20 µM.

What about the IC50 (NaV1.8) of the same molecule?
Its IC50 is less than 2 µM.

What does the source list for CC(C)(C)c1ccc(C(=O)Nc2cccc(S(C)(=O)=O)c2)c(Oc2ncccc2C#N)c1 [Compound 14]?
IC50 (NaV 1.7 channel): < 2 µM; IC50 (NaV1.3 [1]): 2 to 10 µM; IC50 (NaV1.8): < 2 µM

For CC(C)(C)c1ccc(C(=O)Nc2cccc(S(C)(=O)=O)c2)c(Oc2cnccc2C(F)(F)F)c1 [Compound 15], which IC50 (NaV 1.7 channel) is on record?
Its IC50 is 2 to 10 µM.

What about the IC50 (NaV1.3 [1]) of the same molecule?
The IC50 was 2 to 10 µM.

What about the IC50 (NaV1.8) of the same molecule?
The IC50 was less than 2 µM.

Which results are given for CC(C)(C)c1ccc(C(=O)Nc2cccc(S(C)(=O)=O)c2)c(Oc2cccnc2C(F)(F)F)c1 [Compound 16]?
IC50 (NaV 1.7 channel): 2 to 10 µM; IC50 (NaV1.3 [1]): 10 to 20 µM; IC50 (NaV1.8): < 2 µM

What does the source list for CC(C)(C)c1ccc(C(=O)Nc2cccc(S(C)(=O)=O)c2)c(Oc2cccc(C(F)(F)F)n2)c1 [Compound 17]?
IC50 (NaV 1.7 channel): 10 to 20 µM; IC50 (NaV1.3 [1]): 10 to 20 µM; IC50 (NaV1.8): < 2 µM

Which IC50 (NaV 1.7 channel) does the source give for CC(C)(C)c1ccc(C(=O)Nc2cccc(S(C)(=O)=O)c2)c(Oc2ncccc2C(F)(F)F)c1 [Compound 18] here?
The IC50 was 2 to 10 µM.

And the IC50 (NaV1.3 [1])?
The IC50 was 10 to 20 µM.

And the IC50 (NaV1.8)?
Its IC50 is less than 2 µM.

What does the source list for CN(C(=O)c1ccc(C(C)(C)C)cc1Oc1ccc(F)cc1Cl)c1cccc(S(C)(=O)=O)c1 [Compound 19, 4-tert-Butyl-2-(2-chloro-4-fluorophenoxy)-N-methyl-N-(3-(methylsulfonyl)phenyl)benzamide]?
IC50 (NaV 1.7 channel): 2 to 10 µM; IC50 (NaV1.3 [1]): 2 to 10 µM; IC50 (NaV1.8): 2 to 10 µM

With NC1=N[C@H](O)[C@H]2[C@H]3O[C@]4(O)O[C@@H]([C@@H](O)[C@@]2(N1)[C@@H]4O)[C@]3(O)CO [TTX, tetrodotoxin] as the molecule, how does the IC50 (NaV1.9) read?
The IC50 was 1 µM.

What about the IC50 (NaV1.3 [2]) of the same molecule?
The IC50 was 0.015 µM.

What about the IC50 (NaV1.1) of the same molecule?
The IC50 was 0.01 µM.

What about the IC50 (NaV1.2) of the same molecule?
Its IC50 is 0.01 µM.

What about the IC50 (NaV1.6) of the same molecule?
The IC50 was 0.006 µM.

Source: patent US8779197B2, “Aryl amides useful as inhibitors of voltage-gated sodium channels” (Vertex Pharmaceuticals Incorporated, priority 2007, dated 2014)
